Assay type in all cases: cell-based, human
Experiment [1] has as its system astrocytes. The experiment in a line: TdTom-EV uptake by astrocytes with endocytosis inhibitors (flow cytometry). To be noted: 30 min pretreatment: chlorpromazine 20 μM, EIPA 50 μM, filipin III 10 μM, ML141 100 μM, CAS 1177865-17-6 10 μM; 3 hours with EVs. The text has this: To elucidate the mechanisms underlying the uptake of breast cancer-derived EVs by astrocytes, the possibility of the involvement of specific endocytosis mechanism(s) in this uptake was explored. Endocytic pathways such as macropinocytosis, clathrin-dependent and caveolin-dependent endocytosis have been commonly reported to be involved in the uptake of EVs by different cell types^16.
Next, the role of clathrin-caveolin-independent pathways in EV uptake was explored, focusing on rac1 and Cdc42, two major players in this process^17.
To evaluate the uptake of EVs by astrocytes for endocytosis inhibition studies, astrocytes were treated with chlorpromazine hydrochloride (Millipore Sigma, Cat #C8138, 20 μM), 5-(N-Ethyl-N-isopropyl) amiloride (EIPA) (50 μM, Tocris, Cat #3378), and filipin III (10 μM, Millipore Sigma, Cat #F4767), CDC42/Rac1 inhibitor, ML141 (100 μM, Millipore Sigma, Cat #217708), and rac1 inhibitor, CAS 1177865-17-6 (10 μM, Millipore Sigma, Cat #553502) for 30 min.

Experiment [2] has as its system brain endothelial cells. The experiment in a line: TdTom-Br-EV uptake by brain endothelial cells with endocytosis inhibitors (flow cytometry). To be noted: 30 min pretreatment: chlorpromazine 20 μM, ML141 100 μM, EIPA 100 μM, cytochalasin D 500 nM, filipin III 10 μM; 3 hours with EVs. The text has this: The mechanistic details of Br-EV transport was further explored through brain endothelial cells by focusing on the three major steps of transcytosis: 1) endocytosis through the apical (luminal) membrane of brain endothelial cells, 2) transfer through the endocytic pathway, and 3) release into the extracellular environment from the basolateral (abluminal) membrane. To evaluate the mechanism(s) of uptake, brain endothelial cells were pretreated with chemical inhibitors of the different endocytosis pathways and measured the uptake of TdTom-Br-EVs via flow cytometry.
To evaluate the uptake of EVs by brain ECs, astrocytes and pericytes, cells grown to confluence in 96-well plates were incubated with 2×10^9 particle/well of tdTomato P- and Br-EVs. After 2 hours of incubation, cells were washed for 3 times and were fixed for imaging. Images from four different fields were taken using a Zeiss Fluorescent microscope and the level of fluorescence intensity was analyzed using the ImageJ software. To eliminate the confounding effect of cell size on the uptake level, fluorescent intensity for tdTom-EVs was measured per unit of cell surface area. For endocytosis inhibition studies, brain ECs cultured in 12-well plates were treated with chlorpromazine hydrochloride (Millipore Sigma, Cat #C8138, 20 μM), ML141 (100 μM, Millipore Sigma, Cat #217708), 5-(N-Ethyl-N-isopropyl) amiloride (EIPA) (100 μM, Tocris, Cat #3378), cytochalasin D (500 nM, Tocris, Cat #1233), and filipin III (10 μM, Millipore Sigma, Cat #F4767) for 30 minutes prior to addition of TdTom-Br-EVs (10^10 particle/well). Following 3 hours of incubation with EVs, cells were washed and EV uptake was measured by flow cytometry using a BD FACSCalibur flow cytometer (BD Biosciences, San Jose, Calif.).

Experiment [3] concerns brain endothelial monolayer. The experiment in a line: Static Transwell BBB model, transport of Gaussia luciferase-labeled Br-EVs. To be noted: 30 min pretreatment, then Br-EVs 2 hours at 37° C.
Protocol: To verify that the source of the detected signal in the abluminal chamber was the luciferase associated with intact EVs as opposed to free luciferase, the media from the lower chamber was ultracentrifuged on an iodixanol OPTIPREP™ density gradient. As a positive control, Gaussia luciferase-labeled Br-EVs were added directly to the top of a gradient for ultracentrifugation.
To evaluate the effect of temperature, filters were incubated at either 4° C. or 37° C. To evaluate the effect of endocytosis, filters were pretreated with Dynasore hydrate (Millipore Sigma, Cat #D7693) for 30 minutes prior to adding the EVs and then incubated at 37° C. The media from the lower chamber was collected after 2 hours and luminescence intensity was measured as described before. […] After 4 hours of ultracentrifugation, different density fractions were isolated and luminescence intensity was measured for each fraction. […] After 2 hours of incubation, the permeability of the filters to 10 KDa ALEXA FLUOR™ 647 Dextran and 70 KDa FITC-dextran was measured as described above.

The structures appear in SMILES notation. Structures can show the parent of a compound that is named as a salt.

The values below come from patent US20220275371A1, “USE OF RAB7 GTPASE (RAB7) INHIBITORS IN ENHANCING PERMEABILITY OF THE BLOOD BRAIN BARRIER (BBB)” (Children's Medical Center Corporation, priority 2019, published 2022).

Consider `CCN(c1nc(N)c(C(=O)N=C(N)N)nc1Cl)C(C)C` [EIPA, 5-(N-Ethyl-N-isopropyl) amiloride], for which, in experiment [1], the “uptake of breast cancer-derived EVs by astrocytes” value (“uptake … by astrocytes” for short) is “did not affect”. The “uptake of Br-EVs by brain endothelial cells” value (“uptake of Br-EVs” for short) in experiment [2] is listed as “significant decrease”.

`CCCCC[C@@H](O)[C@H]1C(=O)O[C@H](C)[C@@H](O)/C=C/C=C/C=C/C=C/C=C(\C)[C@@H](O)C[C@H](O)C[C@H](O)C[C@H](O)C[C@H](O)C[C@H](O)C[C@@H]1O` [Filipin, filipin III]: in experiment [1], the “uptake … by astrocytes” value is “did not affect”. Also, in experiment [2], the “uptake of Br-EVs” value is “no effect”.

`CCN(CC)CCCC(C)Nc1nc(C)cc(Nc2ccc3nc(C)cc(N)c3c2)n1.Cl.Cl.Cl` (centres unmarked) [CAS 1177865-17-6]: the “uptake … by astrocytes” value in experiment [1] is reported as “no effect”.

With `O=C(N/N=C/c1ccc(O)c(O)c1)c1cc2ccccc2cc1O` [Dynasore], the “abluminal signal of Br-EV transport” value in experiment [3] is “dose-dependent decrease”.

In the case of `C=C1[C@@H](C)[C@H]2[C@H](Cc3ccccc3)NC(=O)[C@]23[C@H](OC(C)=O)/C=C/[C@@](C)(O)C(=O)[C@@H](C)C/C=C/[C@H]3[C@@H]1O` [cytochalasin D], in experiment [2], the “uptake of Br-EVs” value is listed as “significant decrease”.

Regarding `CN(C)CCCN1c2ccccc2Sc2ccc(Cl)cc21` [chlorpromazine, chlorpromazine hydrochloride], the “uptake … by astrocytes” value in experiment [1] is listed as “did not affect”. In addition, the “uptake of Br-EVs” value in experiment [2] is on record as “significantly decreased”.

In the case of `COc1ccc(C2=NN(c3ccc(S(N)(=O)=O)cc3)C(c3ccccc3)C2)cc1` (centres unmarked) [ML141], in experiment [1], the “uptake … by astrocytes” value is recorded as “significantly decreased”. In addition, the “uptake of Br-EVs” value in experiment [2] is on record as “significantly decreased”.
